Source: patent US6864068B2, “Antifungal proteins” (Syngenta Limited, priority 1995, dated 2005)

Columns and labels:
Assay type in all cases: cell-based
F culmorum [1] = experiment: Specific antifungal activity of Rs-AFP2 isoforms in SMF− and SMF+ media; parameters: IC50 SMF− / IC50 SMF+: unit not given here
Description: For each isoform, two independent purifications were carried out and the antifungal activity was determined in duplicate using F culmorum as a test fungus in two different media: a low ionic strength medium called SMF-(Terras et al, 1992, J Biol Chem, 267:15301-15309) and the same medium supplemented with 1 mM CaCl2 and 50 mM KCl called SMF+. The presence of salts in the test medium, especially salts with divalent cations, reduces the specific activity of Rs-AFP2. Seed-purified as well as yeast-expressed wild type Rs-AFP2 served as a control in the assays.
The relative specific activity is expressed as the specific activity of the mutant divided by the specific activity of yRs-AFP2 and multiplied by 100. […] The specific activity was measured in medium SMF−and SMF+.
Deviations are given as standard error of the mean (sem) based on the triplicate experiments. In SMF−, the medium without added salts, most of the derivatives show no decrease or only a minor decrease in antifungal activity, while in SMF+, the medium with added salts, there is a significant decrease in antifungal activity for several Rs-AFP2 isoforms.

F culmorum [2] = experiment: Growth inhibition in SMF with varying CaCl2 or KCl (FIG. 7)
Description: Their antifungal activity was determined in SMF with increasing Ca^2+ or K^+ concentration and compared with that of plant-derivable wild type Rs-AFP2 (isolated from seed) as well as yeast purified Rs-AFP2. FIG. 7 is a graph of the percentage growth inhibition of F culmorum caused by 10 μg/ml of yeast-purified Rs-AFP2 (SEQ ID NO: 20) (open circles), seed-purified Rs-AFP2 (SEQ ID NO: 77) (closed circles), Rs-AFP2/G9R (SEQ ID NO: 38) (squares) and Rs-AFP2/V39R (SEQ ID NO: 43) (triangles) in a medium consisting of SMF with varying concentrations of CaCl2 (panel A) and KCl (panel B).

Ascochyta pisi = experiment: Antifungal activity in three media differing in ionic strength (Table 3)
Description: (§1) The antifungal activity of the G9R and V39R Rs-AFP2 isoforms was also assessed on a set of seven different phytopathogenic fungi in three media differing in ionic strength: SMF−, SMF plus 1 mM CaCl2 and 50 mM KCl, and SMF plus 5 mM CaCl2 and 50 mM KCl. The fungi tested were: Alternaria brassicicola, Ascochyta pisi, Botrytis cinerea, Fusarium culmorum, Nectria haematococca, Phoma betae and Verticillium dahliae.

Phoma betae = experiment: as above; conditions: 72 hours
Description: as §1

Nectria haematococca = experiment: as above
Description: as §1

Alternaria brassicicola = experiment: as above
Description: as §1

Botrytis cinerea = experiment: as above
Description: as §1

Fusarium culmorum = experiment: as above
Description: as §1

Verticillium dahliae = experiment: as above
Description: as §1

[3] = SMF plus 1 mM CaCl2 and 50 mM KCl

## yRs-AFP2/G9R: yeast-expressed Rs-AFP2 isoform, position 9 glycine to arginine (QKLCQRPSRTWSGVCGNNNACKNQCIRLEKARHGSCNYVFPAHKCICYFPC; listed as Raphanus sativus)
F culmorum [1]; 1/IC50 of mutant divided by that of yRs-AFP2 x 100, 48 hour incubation, SMF with 1 mM CaCl2 and 50 mM KCl, preliminary tests
  RELATIVE SPECIFIC ACTIVITY (%) IN MEDIUM SMF+: 285%
F culmorum [1]; 1/IC50 of mutant divided by that of yRs-AFP2 x 100, 48 hour incubation, low ionic strength medium, preliminary tests
  RELATIVE SPECIFIC ACTIVITY (%) IN MEDIUM SMF−: 116%
F culmorum [1]; 72 hours growth, high salt medium (1 mM CaCl2, 50 mM KCl), triplicate
  IC50 SMF+: 3.3
F culmorum [1]; 72 hours growth, low salt medium, triplicate
  IC50 SMF−: 3.0
F culmorum [1]; SMF+
  antifungal activity in SMF+ relative to wild-type Rs-AFP2: approximately two-fold higher
F culmorum [1]; Table 1 tests
  antifungal activity compared with yRs-AFP2 in high salt (SMF+), in words: approximately three times more active than yRs-AFP2
  antifungal activity compared with yRs-AFP2 in low salt (SMF−), in words: not so significantly different in low salt
F culmorum [1]; Table 2 tests, high salt medium
  effect of substitution on antifungal activity in SMF+, in words: increased antifungal activity
F culmorum [1]; Table 2 tests, low salt medium
  effect of substitution on antifungal activity in SMF−, in words: little effect on the antifungal activity
F culmorum [1]; medium SMF+, Rs-AFP2 set at 100
  relative specific antifungal activity (1/IC50), FIG. 6, in words: particularly active
F culmorum [2]; FIG. 7
  reduction of antifungal activity by cations, compared with wild-type Rs-AFP2: less reduced by the presence of cations
F culmorum [2]; SMF with 100 mM KCl, FIG. 7, 10 μg/ml
  activity in the presence of 100 mM KCl: fully inhibitory
F culmorum [2]; protein 10 μg/ml, SMF with 5mM CaCl2
  growth inhibition in the presence of 5mM CaCl2: complete inhibition
Ascochyta pisi; 72 hours
  IC50 VALUES, A pisi, SMF + 1 mM CaCl2/50 mM KCl: >50 µg/mL
  IC50 VALUES, A pisi, SMF + 5 mM CaCl2/50 mM KCl: >100 µg/mL
Ascochyta pisi; SMF−, 72 hours
  IC50 VALUES, A pisi, SMF: 1.6 µg/mL
Ascochyta pisi; Table 3 data
  activity against A pisi compared with Rs-AFP2, in words: comparable to the activity of Rs-AFP2
Phoma betae
  IC50 VALUES, P betae, SMF + 1 mM CaCl2/50 mM KCl: 2.50 µg/mL
  IC50 VALUES, P betae, SMF + 5 mM CaCl2/50 mM KCl: >100 µg/mL
Phoma betae; SMF−
  IC50 VALUES, P betae, SMF: 2.0 µg/mL
Nectria haematococca; 72 hours
  IC50 VALUES, N haematococca, SMF + 1 mM CaCl2/50 mM KCl: 16.0 µg/mL
  IC50 VALUES, N haematococca, SMF + 5 mM CaCl2/50 mM KCl: 100 µg/mL
Nectria haematococca; [3]
  fold activity relative to Rs-AFP2 against N haematococca: approximately three-fold more active
Nectria haematococca; SMF−, 72 hours
  IC50 VALUES, N haematococca, SMF: 2.0 µg/mL
Alternaria brassicicola; 72 hours
  IC50 VALUES, A brassicicola, SMF + 1 mM CaCl2/50 mM KCl: >50 µg/mL
  IC50 VALUES, A brassicicola, SMF + 5 mM CaCl2/50 mM KCl: >100 µg/mL
Alternaria brassicicola; SMF−, 72 hours
  IC50 VALUES, A brassicicola, SMF: 2.6 µg/mL
Alternaria brassicicola; Table 3 data
  activity against A brassicola compared with Rs-AFP2, in words: comparable to the activity of Rs-AFP2
Botrytis cinerea; 72 hours
  IC50 VALUES, B cinerea, SMF + 1 mM CaCl2/50 mM KCl: >50 µg/mL
  IC50 VALUES, B cinerea, SMF + 5 mM CaCl2/50 mM KCl: >100 µg/mL
Botrytis cinerea; SMF−, 72 hours
  IC50 VALUES, B cinerea, SMF: 1.9 µg/mL
Botrytis cinerea; Table 3 data
  activity against B cinerea compared with Rs-AFP2, in words: comparable to the activity of Rs-AFP2
Fusarium culmorum; 96 hours
  IC50 VALUES, F culmorum, SMF + 1 mM CaCl2/50 mM KCl: 1.5 µg/mL
  IC50 VALUES, F culmorum, SMF + 5 mM CaCl2/50 mM KCl: 7.2 µg/mL
Fusarium culmorum; [3]
  fold activity relative to Rs-AFP2 against F culmorum: approximately three-fold more active
Fusarium culmorum; SMF−, 96 hours
  IC50 VALUES, F culmorum, SMF: 2.2 µg/mL
Verticillium dahliae; 96 hours
  IC50 VALUES, V dahliae, SMF + 1 mM CaCl2/50 mM KCl: 4.0 µg/mL
  IC50 VALUES, V dahliae, SMF + 5 mM CaCl2/50 mM KCl: 17.0 µg/mL
Verticillium dahliae; [3]
  fold activity relative to Rs-AFP2 against V dahliae: approximately three-fold more active
Verticillium dahliae; SMF−, 96 hours
  IC50 VALUES, V dahliae, SMF: 0.5 µg/mL
